Measured values: patent US20260199296A1, “AGENT FOR PREVENTING OR AMELIORATING ITCH” (KAO CORPORATION, priority 2022, published 2026)

What was measured:
[1] = test system: AEW model mice (C57BL/6J); experiment: Amelioration of pruritus in AEW model mice by C3a receptor antagonist; type: in vivo, mouse; conditions: 0.5 mg/mL, 200 μL subcutaneously, once daily for 8 days; measured for 3 hours after last administration; FIG. 8
Source text: The animals used were male C57BL/6J mice. Preparation of AEW model: The back of the neck was shaved, and absorbent cotton soaked with a 1:1 (v/v) mixture of acetone and diethyl ether was applied and allowed to stand for 15 seconds. Immediately thereafter, absorbent cotton soaked with water was applied for 30 seconds. This treatment was repeated twice/day (morning and evening) for 7 days.
The compound 1, whose C3a receptor antagonism was confirmed in Example 1 above, was used as a C3a receptor antagonist. The compound 1 was dissolved in saline containing 20% polyethylene glycol 400, of which 200 μL was administered subcutaneously to the back of the neck. The control group was administered the same amount of only the above solvent. The concentration of the C3a receptor antagonist solution was set at 0.5 mg/mL. Sample administration started after the first AEW treatment and was performed at a frequency of once daily for 8 days.
Sixteen hours after the last AEW treatment, the scratching behavior was measured for 3 hours after the last administration of the sample. MicroAct (Neuroscience) was used to measure the scratching behavior.

[2] = molecular target: T1, human C3a receptor (Homo sapiens, UniProt Q16581); experiment: Ca2+-flux assay in HEK293 cells expressing human C3a receptor and GNA16; type: cell-based; conditions: ligands mouse TLQP-21 1 μM or human C3a recombinant protein 300 nM, Fluo-4, HEK293, FIG. 1
T1 construct: host or cells: HEK293
T1 sequence (Q16581 1-482): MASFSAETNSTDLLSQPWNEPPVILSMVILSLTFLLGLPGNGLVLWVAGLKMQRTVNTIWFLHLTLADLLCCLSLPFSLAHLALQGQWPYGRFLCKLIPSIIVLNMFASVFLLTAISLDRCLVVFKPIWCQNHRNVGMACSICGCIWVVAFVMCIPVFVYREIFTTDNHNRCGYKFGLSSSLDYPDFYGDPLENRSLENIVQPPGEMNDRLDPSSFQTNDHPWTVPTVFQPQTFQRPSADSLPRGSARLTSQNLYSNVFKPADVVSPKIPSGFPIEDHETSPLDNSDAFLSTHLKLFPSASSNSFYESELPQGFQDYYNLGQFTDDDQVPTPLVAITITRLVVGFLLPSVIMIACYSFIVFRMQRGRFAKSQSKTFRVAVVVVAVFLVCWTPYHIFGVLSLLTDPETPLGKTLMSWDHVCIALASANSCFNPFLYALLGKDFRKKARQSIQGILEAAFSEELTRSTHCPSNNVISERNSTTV
Source text: Mouse TLQP-21 (Tocris Bioscience, sequence: TLOPPASSRRRHFHHALPPAR, the same applies hereinafter) and human C3a recombinant protein (R&D systems) were used. The solvent was HBSS (Gibco).
The compound 1 (L-arginine, N2-[[5-(diphenylmethyl)-2-thienyl]carbonyl]) synthesized in accordance with a previous report (Rowley, J. A. et al. Journal of Medicinal Chemistry, 2020; 63 (2): 529-541) and ozanimod (Cayman Chemical) were used as C3a receptor antagonists. In the following evaluation, the compound 1 and ozanimod were dissolved in DMSO and diluted with HBSS as appropriate.
Human Embryonic Kidney cells 293 (HEK293) were used, into which the expression vectors necessary for evaluation were introduced according to the following. […]
The cells for evaluating C3a receptor response described above were seeded in a BioCoat (Registered Trademark) Poly-D-Lysine 96-well Black Flat Bottom Microplate (CORNING). […] After 15 minutes, C3a receptor ligand solution (mouse TLQP-21 solution or human C3a recombinant protein solution) was added for C3a receptor stimulation, and the Ca^2+ influx associated with the stimulation was measured over time as intracellular fluorescence intensity (Ex: 480 nm, Em: 540 nm). The value obtained by subtracting the measured value when HBSS was added instead of the C3a receptor ligand solution (blank) was used as the measured value. […]

[3] = test system: AD model mice (NC/Nga); experiment: Amelioration of pruritus in AD model mice by C3a receptor antagonist (mite allergen ointment-induced); type: in vivo, mouse; conditions: 0.5 mg/mL, 200 μL subcutaneously, three times a week; measured for 3 hours after last administration; FIG. 7
Procedure: Seven-week-old female NC/Nga mice were used. Preparation of AD model mice: The back of the neck was shaved, and 100 mg of an ointment containing mite allergen: Biostir AD (Biostir Inc.) was applied to the back of the neck and auricular region under isoflurane anesthesia for initial sensitization. Four days after the first application of the ointment containing mite allergen, 150 μL of 4% (w/v) SDS solution and 100 mg of ointment containing mite allergen were applied to the back of the neck and auricular region under isoflurane anesthesia. Thereafter, the same procedure was performed four times at a frequency of once every 3 to 4 days to induce AD-like dermatitis.
The compound 1, whose C3a receptor antagonism was confirmed in Example 1 above, was used as a C3a receptor antagonist. The compound 1 was dissolved in saline containing 20% polyethylene glycol 400, of which 200 μL was administered subcutaneously to the back of the neck. The control group was administered the same amount of only the above solvent. The concentration of the C3a receptor antagonist solution was set at 0.5 mg/mL. […]
Four days after the last application of the ointment containing mite allergen, the scratching behavior was measured for 3 hours after the last administration of the sample. […]

[4] = test system: AD model mice (NC/Nga); experiment: Amelioration of pruritus in AD model mice by ozanimod (fur mite-parasitized NC/Nga); type: in vivo, mouse; conditions: oral, 3 mg/mL suspension at 10 ml/kg; measurement time 22 hours; FIG. 9
Procedure: NC/Nga mice were parasitized with mouse fur mites (M. musculi) to spontaneously generate dermatitis, and were used as an AD model. Fourteen-week-old males having developed dermatitis were used. After one week of acclimation, the back of their necks was shaved and their scratching behavior was measured. The mice were divided into two groups of eight mice each to ensure an equal number of scratching behaviors.
(§1) Ozanimod (Selleck Biotech) was used. Carboxymethyl cellulose (Maruishi Pharmaceutical Co., Ltd.) prepared at 0.5% with water for injection was used as a solvent. The weighed ozanimod was lightly crushed using an agate pestle, and then the solvent dropwise addition and mixing were repeated to obtain a suspension (3 mg/mL). The preparation was done on the day of administration and stored at room temperature until administration.
The dosage (10 ml/kg) was calculated by measuring body weight, and the prepared evaluation samples were administered orally with an oral gavage needle for mice and a disposable syringe.
(§2) MicroAct (Neuroscience) was used to measure the scratching behavior. […] Measurements were made on the day before (before administration) and on the day of administration (after administration) of ozanimod, and the antipruritic effect of ozanimod was evaluated by comparing the number of scratching behaviors before and after administration.

[5] = test system: ANIT model mice (C57BL/6J); experiment: Amelioration of pruritus in model mice of pruritus associated with cholestasis (ANIT model) by ozanimod; type: in vivo, mouse; conditions: oral, 3 mg/mL suspension at 10 mL/kg; measurement time 22 hours; FIG. 10
Procedure: Shaved male C57BL/6J mice were used. To eight-week-old C57BL/6J mice, α-naphthyl isothiocyanate (ANIT) dissolved in olive oil (FUJIFILM Wako Pure Chemical) was orally administered once daily for 10 days with an oral gavage needle for mice and a disposable syringe. Before administration, body weight was measured to ensure administration at 25 mg/10 mL/kg (ANIT model).
as §1
The dosage (10 mL/kg) was calculated by measuring body weight, and the prepared evaluation samples were administered orally with an oral gavage needle for mice and a disposable syringe.
as §2

Compound	scratching behavior compared to AEW model mice administered with solvent alone [1]	fluorescence intensity due to C3a receptor stimulation by C3a receptor ligands (integrated value vs control = 100%) ([2]; compound at 1 μM)	scratching behavior compared to AD model mice administered with solvent alone [3]	scratching behavior (events) after vs before administration [4]	fluorescence intensity due to C3a receptor stimulation by C3a receptor ligands (integrated value vs control = 100%) ([2]; compound at 10 μM)	scratching behavior (events) after vs before administration [5]
N=C(N)NCCC[C@H](NC(=O)c1ccc(C(c2ccccc2)c2ccccc2)s1)C(=O)O [compound 1, L-arginine, N2-[[5-(diphenylmethyl)-2-thienyl]carbonyl]]	significant decrease	suppressed	significant decrease	–	–	–
CC(C)Oc1ccc(-c2nc(-c3cccc4c3CCC4NCCO)no2)cc1C#N (stereo not drawn) [ozanimod, 5-[3-[1-(2-hydroxyethylamino)-2,3-dihydro-1H-inden-4-yl]-1,2,4-oxadiazol-5-yl]-2-isopropoxybenzonitrile]	–	–	–	significant decrease	suppressed	significant decrease
